One test deals with T1, CFTR ΔF508 mutant (Homo sapiens, UniProt P13569, DEL508-508).
T1 construct: expressed in transfected cells; host or cells: CFBE41o- cells, adenoviral transduction
The test is described as follows: YFP-halide influx assay for the CFTR-ΔF508 mutation (CFBE41o- cells). The conditions noted are these: forskolin 10.67 μM; for EC50: from (1−F/F0) vs concentration plot. It is filed as cell-based. From the text: The YFP halide influx assay measured the functionality of the cystic fibrosis Transmembrane Conductance regulator (CFTR) channels in the cystic fibrosis bronchial epithelium cell line CFBE41o-. The assay was used to evaluate the capacity of compounds to increase the open probability of existing CFTR channels in the membrane. It makes use of the observation that the yellow fluorescent protein (YFP) variant YFP H148Q, I152L, F47L has its fluorescence substantially quenched by halide ions like Cl^− and I^− (Galietta, L. J. V., Haggie, P. M., Verkman, A. S., 2001. Green fluorescent protein-based halide indicators with improved chloride and iodide affinities. FEBS Lett. 499, 220-224. doi:10.1016/S0014-5793(01)02561-3; Nagai, T., Ibata, K., Park, E. S., Kubota, M., Mikoshiba, K., Miyawaki, A., 2002. A variant of yellow fluorescent protein with fast and efficient maturation for cell-biological applications. Nat. Biotechnol. 20, 87-90. doi: 10.1038/nbt0102-87).
For this purpose, CFBE41o-cells were seeded in 384 well plates (3000 CFBE cells/well). One day after seeding, the CFBE cells were transduced with adenoviral vectors that direct the expression of the CFTR ΔF508 mutant and of the YFP reporter. Cells were incubated at 27° C., 5% CO2 for 24 hours so as to allow for the proper folding and migration to the membrane of the CFTR channel or treated with a CFTR modulator during 24 hours at 37° C.
The I-induced quenching of fluorescence was recorded on an immediately after injection of iodide for 2 minutes on an FDSS/μCell (Hamamatsu). The capacity of a compound to increase the channel opening was directly correlated with the decrease in fluorescence, and was expressed as (1−(fluorescence after 36 seconds (F)/fluorescence before injection (F0))) and an EC50 was derived from a (1−F/F0) vs compound concentration plot.

The next test concerns the target T2, CFTR G551D mutant (Homo sapiens, UniProt P13569, G551D).
T2 construct: expressed in transfected cells; host or cells: HEK293 cells, reverse transfection with plasmids
Kind of test: YFP-halide influx assay for the CFTR-G551D mutation (HEK293 cells). The test is classed as cell-based. The following applies: forskolin 10.67 μM. From the text:
The YFP halide influx assay measured the functionality of the cystic fibrosis Transmembrane Conductance regulator (CFTR) channels. The assay was used to evaluate the capacity of compounds to increase the channel opening of existing mutant CFTR channels in the membrane. It makes use of the observation that the yellow fluorescent protein (YFP) variant YFP H148Q, I152L, F47L has its fluorescence substantially quenched by halide ions like Cl^− and I^− (Galietta, L. J. V., Haggie, P. M., Verkman, A. S., 2001. Green fluorescent protein-based halide indicators with improved chloride and iodide affinities. FEBS Lett. 499, 220-224. doi:10.1016/S0014-5793(01)02561-3).
For this purpose, HEK293-cells were seeded in 96 well plates. During seeding, the cells were reverse-transfected with plasmid vectors that direct the expression of the CFTR G551D mutant and of the YFP reporter. Cells were incubated at 37° C., 5% CO2 for 24 hours so as to allow for sufficient expression of the CFTR protein.
The I^−-induced quenching of fluorescence was recorded immediately after injection of I^− for 7 seconds. The capacity of a compound to increase the channel opening was directly correlated with the decrease in fluorescence, and was expressed as (1−(fluorescence after 7 seconds (F)/fluorescence before injection (F0))) and an EC50 was derived from a (1−F/F0) vs compound concentration plot.

T2 sequence (P13569 whole entry G551D): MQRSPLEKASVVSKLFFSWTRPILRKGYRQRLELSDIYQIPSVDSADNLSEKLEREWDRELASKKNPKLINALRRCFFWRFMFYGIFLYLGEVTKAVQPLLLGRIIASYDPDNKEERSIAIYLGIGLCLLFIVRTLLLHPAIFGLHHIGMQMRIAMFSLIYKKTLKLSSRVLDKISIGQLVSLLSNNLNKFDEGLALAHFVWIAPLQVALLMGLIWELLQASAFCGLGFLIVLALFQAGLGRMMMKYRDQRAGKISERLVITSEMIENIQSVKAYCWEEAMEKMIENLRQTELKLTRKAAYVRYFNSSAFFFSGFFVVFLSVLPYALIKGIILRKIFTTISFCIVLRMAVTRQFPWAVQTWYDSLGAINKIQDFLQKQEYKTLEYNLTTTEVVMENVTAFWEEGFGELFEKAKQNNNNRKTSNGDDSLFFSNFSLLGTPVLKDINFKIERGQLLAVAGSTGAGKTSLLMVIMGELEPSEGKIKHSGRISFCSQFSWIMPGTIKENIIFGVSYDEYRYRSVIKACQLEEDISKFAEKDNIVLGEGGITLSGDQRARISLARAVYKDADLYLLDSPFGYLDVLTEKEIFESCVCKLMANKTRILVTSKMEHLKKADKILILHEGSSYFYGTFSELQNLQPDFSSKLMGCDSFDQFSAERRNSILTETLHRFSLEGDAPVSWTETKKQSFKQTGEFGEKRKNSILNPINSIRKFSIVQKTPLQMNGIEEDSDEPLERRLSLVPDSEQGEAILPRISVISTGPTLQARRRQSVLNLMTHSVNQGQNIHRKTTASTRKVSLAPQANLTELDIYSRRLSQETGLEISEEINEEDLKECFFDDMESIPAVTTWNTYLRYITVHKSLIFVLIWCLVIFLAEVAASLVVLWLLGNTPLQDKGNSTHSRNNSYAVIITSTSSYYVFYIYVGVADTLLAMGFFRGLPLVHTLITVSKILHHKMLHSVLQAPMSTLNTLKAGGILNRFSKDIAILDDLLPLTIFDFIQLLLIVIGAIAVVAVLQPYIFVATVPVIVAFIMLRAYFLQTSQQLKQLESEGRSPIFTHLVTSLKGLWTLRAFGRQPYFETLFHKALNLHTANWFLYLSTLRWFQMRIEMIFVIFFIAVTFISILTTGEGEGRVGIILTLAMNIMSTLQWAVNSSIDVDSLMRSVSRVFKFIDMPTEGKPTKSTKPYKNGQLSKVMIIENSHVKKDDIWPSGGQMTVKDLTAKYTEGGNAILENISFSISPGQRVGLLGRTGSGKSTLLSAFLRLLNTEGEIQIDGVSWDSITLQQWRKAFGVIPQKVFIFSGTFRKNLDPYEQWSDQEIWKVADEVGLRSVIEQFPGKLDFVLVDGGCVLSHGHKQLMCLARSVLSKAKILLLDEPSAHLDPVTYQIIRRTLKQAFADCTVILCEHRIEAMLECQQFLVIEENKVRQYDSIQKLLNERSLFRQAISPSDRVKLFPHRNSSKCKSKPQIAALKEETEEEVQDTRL
T1 sequence (P13569 with tags, fused parts or gaps DEL508-508): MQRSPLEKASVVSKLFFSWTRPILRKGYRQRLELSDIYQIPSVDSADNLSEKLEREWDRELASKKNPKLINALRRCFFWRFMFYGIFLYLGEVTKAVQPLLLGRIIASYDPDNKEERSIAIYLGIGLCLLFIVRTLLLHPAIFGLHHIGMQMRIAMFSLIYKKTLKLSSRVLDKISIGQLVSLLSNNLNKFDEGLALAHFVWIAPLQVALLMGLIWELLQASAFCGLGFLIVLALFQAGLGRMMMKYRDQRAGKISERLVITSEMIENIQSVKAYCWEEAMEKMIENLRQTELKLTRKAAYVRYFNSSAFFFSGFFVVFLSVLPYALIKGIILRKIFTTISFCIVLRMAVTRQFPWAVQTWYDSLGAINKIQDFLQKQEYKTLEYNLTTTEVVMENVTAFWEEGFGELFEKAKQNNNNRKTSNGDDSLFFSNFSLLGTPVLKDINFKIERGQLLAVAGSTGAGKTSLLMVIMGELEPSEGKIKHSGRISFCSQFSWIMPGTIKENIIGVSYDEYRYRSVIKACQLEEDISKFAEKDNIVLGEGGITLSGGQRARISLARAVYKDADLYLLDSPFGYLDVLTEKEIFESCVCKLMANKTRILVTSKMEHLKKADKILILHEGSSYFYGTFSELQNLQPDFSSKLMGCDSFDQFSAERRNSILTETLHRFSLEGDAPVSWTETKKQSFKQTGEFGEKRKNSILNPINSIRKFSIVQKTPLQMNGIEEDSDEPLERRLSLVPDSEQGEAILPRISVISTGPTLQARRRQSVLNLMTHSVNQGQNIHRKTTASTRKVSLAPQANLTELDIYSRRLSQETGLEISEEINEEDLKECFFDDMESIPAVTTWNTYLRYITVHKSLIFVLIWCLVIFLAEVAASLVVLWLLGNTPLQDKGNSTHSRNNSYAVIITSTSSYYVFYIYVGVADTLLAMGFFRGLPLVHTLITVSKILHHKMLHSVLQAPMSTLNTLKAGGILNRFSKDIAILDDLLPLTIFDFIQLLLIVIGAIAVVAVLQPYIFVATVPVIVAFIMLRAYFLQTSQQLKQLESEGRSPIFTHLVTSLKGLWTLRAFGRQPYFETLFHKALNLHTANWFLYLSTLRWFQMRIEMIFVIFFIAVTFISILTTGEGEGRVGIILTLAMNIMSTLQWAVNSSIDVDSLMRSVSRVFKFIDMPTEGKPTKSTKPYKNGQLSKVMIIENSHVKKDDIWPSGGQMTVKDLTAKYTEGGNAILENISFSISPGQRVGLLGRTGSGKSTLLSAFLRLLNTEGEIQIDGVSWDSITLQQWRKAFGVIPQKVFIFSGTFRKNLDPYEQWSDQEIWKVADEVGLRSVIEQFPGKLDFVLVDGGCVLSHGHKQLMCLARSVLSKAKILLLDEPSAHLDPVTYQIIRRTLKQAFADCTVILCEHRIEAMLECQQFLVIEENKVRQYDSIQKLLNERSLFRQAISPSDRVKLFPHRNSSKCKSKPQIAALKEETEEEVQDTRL

In general, EC50 refers to the concentration at which the effect is half-maximal. Low values mean an effect from little substance, high ones a need for much substance. As to `Nc1cc(S(=O)(=O)c2ccc(OC(F)(F)F)cc2F)cnc1C(=O)NCC(O)COCC1CC1` (centres unmarked) [Compound 169, 3-amino-N-[3-(cyclopropylmethoxy)-2-hydroxypropyl]-5-{[2-fluoro-4-(trifluoromethoxy)phenyl]sulfonyl}pyridine-2-carboxamide], on CFTR ΔF508 mutant, the “% Activation” value stood at 95.5% and the EC50 is 0.0138 µM. At CFTR G551D mutant, the “% Activation” value came out at 81.3% and the EC50 worked out at 1.12 µM.

As for `C[C@H](O)CNC(=O)c1nc(-c2ccc(F)cc2)c(S(=O)(=O)C2CCCC2)cc1N` [Compound 261, 3-amino-5-(cyclopentanesulfonyl)-6-(4-fluorophenyl)-N-[(2S)-2-hydroxypropyl]pyridine-2-carboxamide], at CFTR ΔF508 mutant, the “% Activation” value was 87.3% and the midpoint of the response, the EC50, lay at 0.162 µM. At CFTR G551D mutant, the “% Activation” value stood at 16.6% and the EC50 was > 1 µM.

Turning to `Nc1cc(S(=O)(=O)c2ccc(C(F)(F)F)cc2)cnc1C(=O)N[C@@H]1COCC[C@@H]1O` [Compound 235, 3-amino-N-[(3R,4S)-4-hydroxytetrahydro-2H-pyran-3-yl]-5-{[4-(trifluoromethyl)phenyl]sulfonyl}pyridine-2-carboxamide], the entries for the “% Activation” value on CFTR ΔF508 mutant and on CFTR G551D mutant were 58.5% and 14.4%, respectively. On CFTR ΔF508 mutant, the EC50 is > 0.667 µM.

In the case of `CC(C)C1(O)CN(C(=O)c2ncc(S(=O)(=O)c3ccc(OC(F)(F)F)cc3F)cc2N)C1` [Compound 175, (3-amino-5-{[2-fluoro-4-(trifluoromethoxy)phenyl]sulfonyl}pyridin-2-yl)[3-hydroxy-3-(propan-2-yl)azetidin-1-yl]methanone], on CFTR ΔF508 mutant, the “% Activation” value is listed as 103.0% and the EC50 was 0.0063 µM. For the same compound, at CFTR G551D mutant, the “% Activation” value worked out at 44.0% and the EC50 was > 3.33 µM.

As to `Nc1cc(S(=O)(=O)c2ccc(C(F)(F)F)cc2)cnc1C(=O)N1CCC[C@@H]1CO` [Compound 233, (3-amino-5-{[4-(trifluoromethyl)phenyl]sulfonyl}pyridin-2-yl) [(2R)-2-(hydroxymethyl)pyrrolidin-1-yl]methanone], the “% Activation” value is 44.9% at CFTR ΔF508 mutant and 5.4% on CFTR G551D mutant. For the same compound, the EC50 was 1.39 µM on CFTR ΔF508 mutant and > 10 µM on CFTR G551D mutant.

For `Nc1cc(S(=O)(=O)c2ccc(OC(F)(F)F)cc2)cnc1C(=O)N1CC2(COC2)C1` [Compound 68, (3-amino-5-{[4-(trifluoromethoxy)phenyl]sulfonyl}pyridin-2-yl)(2-oxa-6-azaspiro[3.3]hept-6-yl)methanone], the “% Activation” value on CFTR ΔF508 mutant turned out to be 92.0%; on CFTR G551D mutant, 54.0%. Further, the EC50 at CFTR ΔF508 mutant amounted to 0.13 µM; at CFTR G551D mutant it was 1.82 µM.

As for `Nc1cc(S(=O)(=O)c2ccc(C(F)(F)F)cc2)cnc1C(=O)N1CC(OC(F)F)C1` [Compound 158, (3-amino-5-{[4-(trifluoromethyl)phenyl]sulfonyl}pyridin-2-yl)[3-(difluoromethoxy)azetidin-1-yl]methanone], the “% Activation” value at CFTR ΔF508 mutant is 114.3%; on CFTR G551D mutant it was 29.2%. Besides, the EC50 on CFTR ΔF508 mutant was 0.0316 µM; on CFTR G551D mutant it was > 10 µM.

`Nc1cc(S(=O)(=O)c2ccc(OC(F)(F)F)cc2)cnc1C(=O)NC[C@@H](O)CO` [Compound 50, 3-amino-N-[(2R)-2,3-dihydroxypropyl]-5-{[4-(trifluoromethoxy)phenyl]sulfonyl}pyridine-2-carboxamide]: the “% Activation” value on CFTR ΔF508 mutant was found to be 90.8%; on CFTR G551D mutant it was 23.5%. Further, the EC50 was 0.0575 µM at CFTR ΔF508 mutant and > 10 µM on CFTR G551D mutant.

As for `CC1(C)CN(C(=O)c2ncc(S(=O)(=O)c3ccc(C(F)(F)F)cc3F)cc2N)C1` [Compound 111, (3-amino-5-{[2-fluoro-4-(trifluoromethyl)phenyl]sulfonyl}pyridin-2-yl)(3,3-dimethylazetidin-1-yl)methanone], the “% Activation” value on CFTR ΔF508 mutant is recorded as 103.2%; at CFTR G551D mutant, 99.2%. Also, the values for the EC50 on CFTR ΔF508 mutant and at CFTR G551D mutant were 0.0226 µM and 0.851 µM, respectively.

Consider `CC1(C)CN(C(=O)c2ncc(S(=O)(=O)c3ccc(C(F)(F)F)cc3)cc2N)C1` [Compound 110, (3-amino-5-{[4-(trifluoromethyl)phenyl]sulfonyl}pyridin-2-yl)(3,3-dimethylazetidin-1-yl)methanone], for which, at CFTR ΔF508 mutant, the “% Activation” value was 116.0% and the EC50 worked out at 0.0335 µM. Moreover, on CFTR G551D mutant, the “% Activation” value turned out to be 83.6% and the midpoint of the response, the EC50, lay at 1.14 µM.

On to `Nc1cc(S(=O)(=O)c2ccc(OC(F)(F)F)cc2)cnc1C(=O)N[C@@H]1CCOC1` [Compound 128, 3-amino-N-[(3R)-tetrahydrofuran-3-yl]-5-{[4-(trifluoromethoxy)phenyl]sulfonyl}pyridine-2-carboxamide], for which, at CFTR ΔF508 mutant, the “% Activation” value was found to be 95.0% and the half-maximal effective concentration (EC50) worked out at 0.0852 µM. Moreover, on CFTR G551D mutant, the “% Activation” value stood at 41.7% and the half-maximal effective concentration (EC50) is > 10 µM.

In the case of `Nc1cc(S(=O)(=O)N2CCC(F)(F)C2)cnc1C(=O)NCC(O)C(F)(F)F` (centres unmarked) [Compound 186, 3-amino-5-[(3,3-difluoropyrrolidin-1-yl)sulfonyl]-N-(3,3,3-trifluoro-2-hydroxypropyl)pyridine-2-carboxamide], on CFTR ΔF508 mutant, the “% Activation” value was 108.2% and the EC50 came to 0.0299 µM. Besides, at CFTR G551D mutant, the “% Activation” value is given as 49.9% and the EC50 was > 3.33 µM.

Turning to `Nc1cc(S(=O)(=O)c2ccc(OC(F)(F)F)cc2)cnc1C(=O)NCC1COCCO1` (centres unmarked) [Compound 8, 3-amino-N-(1,4-dioxan-2-ylmethyl)-5-{[4-(trifluoromethoxy)phenyl]sulfonyl}pyridine-2-carboxamide], the “% Activation” value at CFTR ΔF508 mutant is 109.5%; on CFTR G551D mutant, 67.5%. For the same compound, the EC50 at CFTR ΔF508 mutant worked out at 0.0721 µM; on CFTR G551D mutant it was 1.2 µM.

For `Nc1cc(S(=O)(=O)c2ccc(OC(F)(F)F)cc2)cnc1C(=O)NCC(O)C1CCOC1` (centres unmarked) [Compound 73, 3-amino-N-[2-hydroxy-2-(tetrahydrofuran-3-yl)ethyl]-5-{[4-(trifluoromethoxy)phenyl]sulfonyl}pyridine-2-carboxamide], on CFTR ΔF508 mutant, the “% Activation” value stood at 102.0% and the EC50 stood at 0.0814 µM. Besides, at CFTR G551D mutant, the “% Activation” value stood at 61.0% and the EC50 is > 3.33 µM.

In the case of `CC1(O)CN(C(=O)c2ncc(S(=O)(=O)c3ccc(OC(F)(F)F)cc3)cc2N)C1` [Compound 89, (3-amino-5-{[4-(trifluoromethoxy)phenyl]sulfonyl}pyridin-2-yl)(3-hydroxy-3-methylazetidin-1-yl)methanone], on CFTR ΔF508 mutant, the “% Activation” value is 99.6% and the EC50 worked out at 0.0069 µM. For the same compound, on CFTR G551D mutant, the “% Activation” value came out at 53.6% and the EC50 was > 3.33 µM.

As to `N#CC1CN(C(=O)c2ncc(S(=O)(=O)c3ccc(OC(F)(F)F)cc3)cc2N)C1` [Compound 61, 1-[(3-amino-5-{[4-(trifluoromethoxy)phenyl]sulfonyl}pyridin-2-yl)carbonyl]azetidine-3-carbonitrile], the “% Activation” value is reported as 101.0% at CFTR ΔF508 mutant and 70.0% on CFTR G551D mutant. In addition, the EC50 amounted to 0.0609 µM on CFTR ΔF508 mutant and 2.73 µM on CFTR G551D mutant.

Take `Nc1cc(S(=O)(=O)c2ccc(OC(F)(F)F)cc2)cnc1C(=O)NC1COC1` [Compound 151, 3-amino-N-(oxetan-3-yl)-5-{[4-(trifluoromethoxy)phenyl]sulfonyl}pyridine-2-carboxamide]: on CFTR ΔF508 mutant, the “% Activation” value amounted to 16.9% and the EC50 was > 1 µM. Further, at CFTR G551D mutant, the “% Activation” value came to 3.0% and the EC50 was > 5 µM.

As for `Nc1cc(S(=O)(=O)c2ccc(C(F)(F)F)cc2)cnc1C(=O)NCCOC(F)(F)F` [Compound 240, 3-amino-N-[2-(trifluoromethoxy)ethyl]-5-{[4-(trifluoromethyl)phenyl]sulfonyl}pyridine-2-carboxamide], on CFTR ΔF508 mutant, the “% Activation” value is 98.1% and a half-maximal effect (EC50) was put at 0.137 µM. For the same compound, on CFTR G551D mutant, the “% Activation” value is reported as 50.6% and a half-maximal response (EC50) required 0.949 µM.

Source of the values: patent US10047051B2, “Substituted pyridines and method of use” (AbbVie S.á{acute over (.)}r.l., priority 2015, dated 2018).
